Assay [1] addresses T1, LSD-1 enzyme (Homo sapiens (Human), UniProt O60341). Briefly: biochemical.
Protocol: (§1) LSD1 Histone Demethylase Biochemical Assay
(§2) LANCE LSD1/KDM1A demethylase assay-10 μL of 1 nM LSD-1 enzyme (ENZO BML-SE544-0050) in the assay buffer (50 mM Tris, pH 7.5, 0.01% Tween-20, 25 mM NaCl, 5 mM DTT) were preincubated for 1 hour at 25° C. with 0.8 μL compound/DMSO dotted in black 384 well polystyrene plates. […] After stopping the reactions plates were incubated for 30 minutes and read on a PHERAstar FS plate reader (BMG Labtech).
Assay [2] deals with T1, LSD-1 enzyme.
Protocol: as §1, §2

In general, IC50 refers to the midpoint of a concentration-inhibition curve. Low readings indicate inhibition by little substance, high ones a need for much substance.

Like-named read-outs stand apart in the source and are kept apart here. Bounds are passed on as bounds.

Turning to `COCC1(CN[C@@H]2C[C@H]2c2ccccc2)CCN(C(=O)N2CC(O)C2)CC1` [Example 111, 1-{[4-(methoxymethyl)-4-({[(1R,2S)-2-phenylcyclopropyl]amino}methyl)piperidin-1-yl]carbonyl}azetidin-3-ol], on LSD-1 enzyme [1], the IC50 was under 100 nM.
In turn, `COCC1(C(C)N[C@@H]2C[C@H]2c2ccccc2)CCN(CC2(C(=O)O)CCC2)CC1` (stereo partly drawn) [Example 68, 1-{[4-(methoxymethyl)-4-(1-{[(1R,2S)-2-phenylcyclopropyl]amino}ethyl)piperidin-1-yl]methyl}cyclobutanecarboxylic acid] registered an IC50 against LSD-1 enzyme [2] of under 100 nM.
On the same count and under the same terms, as for `COCC1(CN[C@@H]2C[C@H]2c2ccccc2)CCN(C(=O)c2ccc(N)nn2)CC1` [Example 40, 6-{[4-(methoxymethyl)-4-({[(1R,2S)-2-phenylcyclopropyl]amino}methyl)piperidin-1-yl]carbonyl}pyridazin-3-amine], the figure is under 100 nM.
